Source: patent US4122034A, “Antimicrobial compositions” (Schering Corporation, priority 1975, dated 1978)
≈ marks a conversion by molar mass, not a printed value.

Experiments:
Bacteroides corrodens = test: In vitro activity against anaerobes in fluid Thioglycollate medium (Table II); assay type: cell-based; conditions: Eikenella corrodens
Method: (§1) All the tests were carried out and (when necessary) scored under standard conditions. "MIC" means "minimum inhibitory concentration."
(§2) In vitro activity of 2-aminoalkyl-3-phenylindoles of the formula I
(§3) against anaerobes in fluid Thioglycollate medium

Bacteroides fragilis = test: as above; assay type: cell-based
Method: as §1, §2, §3

[1] = test system: Bacteroides melaninogenicus; test: as above; assay type: cell-based
Method: as §1, §2, §3

Peptostreptococcus = test: as above; assay type: cell-based
Method: as §1, §2, §3

Eubacterium lentum = test: as above; assay type: cell-based; conditions: Eggerthella lenta
Method: as §1, §2, §3

Clostridium novyi = test: as above; assay type: cell-based
Method: as §1, §2, §3

Clostridium septicum = test: as above; assay type: cell-based
Method: as §1, §2, §3

Clostridium histolyticum = test: as above; assay type: cell-based; conditions: Hathewaya histolytica
Method: as §1, §2, §3

Trychomonas vaginalis = test: In vitro Anti-Trichomonal activity (Table VII); assay type: cell-based
Method: as §1
In vitro Anti-Trichomonal Activity of some 2-aminoalkyl-3-
phenyl-indenes of formula II.

[2] = Acute toxicity in mice (Table V); conditions: mouse, in vivo
Method: as §1
Acute Toxicity of 2-aminoalkyl-3-phenylindoles of the formula I

Epidermophyton floccosum = test: In vitro antifungal activity, dilutions in Sabouraud's Dextrose Broth (Table IV); assay type: cell-based; conditions: after 96 hours
Method: as §1
(§4) In vitro Antifungal Activity of 2-amioalkyl-3-phenylindoles
(§5) of the formula I against Dermetophytes and Aspergillus.
(§6) Dilutions in Sabouraud's Dextrose Broth.

Trichophyton soudenense = test: as above; assay type: cell-based; conditions: after 96 hours
Method: as §1, §4, §5, §6

Trichophyton gallinae = test: as above; assay type: cell-based; conditions: after 96 hours
Method: as §1, §4, §5, §6

Trichophyton ascoides = test: as above; assay type: cell-based; conditions: after 96 hours
Method: as §1, §4, §5, §6

Microsporum distortum = test: as above; assay type: cell-based; conditions: after 96 hours
Method: as §1, §4, §5, §6

Trichophyton megninii = test: as above; assay type: cell-based; conditions: Trichophyton rubrum; after 96 hours
Method: as §1, §4, §5, §6

Microsporum nanum = test: as above; assay type: cell-based; conditions: Nannizzia nana; after 96 hours
Method: as §1, §4, §5, §6

[3] = test system: Trichophyton mentagrophytes; test: as above; assay type: cell-based; conditions: 96 h
Method: as §1, §4, §5, §6

Tricoderm sp. = test: as above; assay type: cell-based; conditions: after 96 hours
Method: as §1, §4, §5, §6

[4] = test system: Trichophyton schoenleinii; test: as above; assay type: cell-based; conditions: 96 h
Method: as §1, §4, §5, §6

Aspergillus sp. No. 3 = test: as above; assay type: cell-based; conditions: after 96 hours
Method: as §1, §4, §5, §6

Trichophyton discoides = test: as above; assay type: cell-based; conditions: after 96 hours
Method: as §1, §4, §5, §6

Trichophyton tonsurans = test: as above; assay type: cell-based; conditions: after 96 hours
Method: as §1, §4, §5, §6

Aspergillus niger 6275 = test: as above; assay type: cell-based; conditions: after 96 hours
Method: as §1, §4, §5, §6

Trichophyton rubrum = test: as above; assay type: cell-based; conditions: 96 h
Method: as §1, §4, §5, §6

Trichophyton ferrugineum = test: as above; assay type: cell-based; conditions: Microsporum ferrugineum; after 96 hours
Method: as §1, §4, §5, §6

Candida albicans = test: In vitro Anti-Candida activity, dilutions in Sabouraud's Dextrose Agar (Table III); assay type: cell-based; conditions: 48 h
Method: as §1
In vitro Anti-Candida Activity of 2-aminoalkyl-3-phenyl-
indoles of the formula I. Dilutions in Sabouraud's Dextrose
MIC (mcg/ml) after 48 hours

T. mentagrophytes = test: Effect against topical T. mentagrophytes infections in guinea pigs (Table VI); assay type: in vivo; parameters: Average Sum of lesion scores, Days 1-5 / Average Sum of lesion scores, Days 1-10: scale not given here; conditions: for Average Sum of lesion scores, Days 1-5: untreated controls 14.8; for Average Sum of lesion scores, Days 1-10: untreated controls 38.2
Method: as §1
Effect of some 2-aminoalkyl-3-phenylindoles of the formula II
against topical T. mentagrophytes infections in guinea pigs.

Enterococcus = test: In vitro antibacterial activity, dilution in Mueller Hinton Agar (Table I); assay type: cell-based
Method: as §1
In vitro Antibacterial Activity of 2-aminoalkyl-3-phenyl-
indoles of the formula I. Dilution in Mueller Hinton Agar pH 7.4

## NCc1[nH]c2ccc(Cl)cc2c1-c1ccccc1F [A, 2-Aminomethyl-5-chloro-3-(2-fluorophenyl)indole]
Bacteroides corrodens; 48 hrs
  MIC: 7.5 µg/mL (≈ 27.3 µM)
Bacteroides corrodens; 72 hrs
  MIC: 7.5 µg/mL (≈ 27.3 µM)
Bacteroides fragilis; 48 hrs
  MIC: 7.5 µg/mL (≈ 27.3 µM)
Bacteroides fragilis; 72 hrs
  MIC: 7.5 µg/mL (≈ 27.3 µM)
[1]; 48 hrs
  MIC: 7.5 µg/mL (≈ 27.3 µM)
[1]; 72 hrs
  MIC: 7.5 µg/mL (≈ 27.3 µM)
Peptostreptococcus; 48 hrs
  MIC: 3 µg/mL (≈ 10.9 µM)
Peptostreptococcus; 72 hrs
  MIC: 3 µg/mL (≈ 10.9 µM)
Eubacterium lentum; 48 hrs
  MIC: 17.5 µg/mL (≈ 63.7 µM)
Eubacterium lentum; 72 hrs
  MIC: 17.5 µg/mL (≈ 63.7 µM)
Clostridium novyi; 48 hrs
  MIC: 7.5 µg/mL (≈ 27.3 µM)
Clostridium novyi; 72 hrs
  MIC: 7.5 µg/mL (≈ 27.3 µM)
Clostridium septicum; 48 hrs
  MIC: 7.5 µg/mL (≈ 27.3 µM)
Clostridium septicum; 72 hrs
  MIC: 7.5 µg/mL (≈ 27.3 µM)
Clostridium histolyticum; 48 hrs
  MIC: 7.5 µg/mL (≈ 27.3 µM)
Clostridium histolyticum; 72 hrs
  MIC: 7.5 µg/mL (≈ 27.3 µM)
Trychomonas vaginalis; 50% suppression, read-out: Minimal Level to Produce 50% Suppression
  IC50: 24 µg/mL (≈ 87.4 µM)
Trychomonas vaginalis; 90% suppression, read-out: Minimal Level to Produce 90% Suppression
  IC90: 40 µg/mL (≈ 146 µM)
[2]; Oral
  LD50: > 1000 mg/kg
[2]; ip, I.P.
  LD50: 250 mg/kg
[2]; sc, S.C.
  LD50: 850 mg/kg
Epidermophyton floccosum
  MIC: 3 µg/mL (≈ 10.9 µM)
Trichophyton soudenense
  MIC: 17.5 µg/mL (≈ 63.7 µM)
Trichophyton gallinae
  MIC: 7.5 µg/mL (≈ 27.3 µM)
Trichophyton ascoides
  MIC: 17.5 µg/mL (≈ 63.7 µM)
Microsporum distortum
  MIC: 3 µg/mL (≈ 10.9 µM)
Trichophyton megninii
  MIC: 3 µg/mL (≈ 10.9 µM)
Microsporum nanum
  MIC: 3 µg/mL (≈ 10.9 µM)
[3]; strain A, after 96 hours
  MIC: 7.5 µg/mL (≈ 27.3 µM)
[3]; strain B, after 96 hours
  MIC: 7.5 µg/mL (≈ 27.3 µM)
[3]; strain C, after 96 hours
  MIC: 7.5 µg/mL (≈ 27.3 µM)
[3]; strain H377, after 96 hours
  MIC: 7.5 µg/mL (≈ 27.3 µM)
[3]; strain Young, after 96 hours
  MIC: 7.5 µg/mL (≈ 27.3 µM)
Tricoderm sp.
  MIC: 7.5 µg/mL (≈ 27.3 µM)
[4]; strain 2, after 96 hours
  MIC: 3 µg/mL (≈ 10.9 µM)
[4]; strain not given, after 96 hours
  MIC: 17.5 µg/mL (≈ 63.7 µM)
Aspergillus sp. No. 3
  MIC: 17.5 µg/mL (≈ 63.7 µM)
Trichophyton discoides
  MIC: 7.5 µg/mL (≈ 27.3 µM)
Trichophyton tonsurans
  MIC: 17.5 µg/mL (≈ 63.7 µM)
Aspergillus niger 6275
  MIC: 17.5 µg/mL (≈ 63.7 µM)
Trichophyton rubrum; strain 3, after 96 hours
  MIC: 7.5 µg/mL (≈ 27.3 µM)
Trichophyton rubrum; strain 360, after 96 hours
  MIC: 7.5 µg/mL (≈ 27.3 µM)
Trichophyton rubrum; strain Blehl, after 96 hours
  MIC: 7.5 µg/mL (≈ 27.3 µM)
Trichophyton rubrum; strain Haggerty, after 96 hours
  MIC: 7.5 µg/mL (≈ 27.3 µM)
Trichophyton ferrugineum
  MIC: 7.5 µg/mL (≈ 27.3 µM)
Candida albicans; strain 1, after 48 hours
  MIC: 75 µg/mL (≈ 273 µM)
Candida albicans; strain 2, after 48 hours
  MIC: 75 µg/mL (≈ 273 µM)
Candida albicans; strain 3, after 48 hours
  MIC: 75 µg/mL (≈ 273 µM)
Candida albicans; strain 4, after 48 hours
  MIC: 75 µg/mL (≈ 273 µM)
Candida albicans; strain 5, after 48 hours
  MIC: 75 µg/mL (≈ 273 µM)
Candida albicans; strain 6, after 48 hours
  MIC: 75 µg/mL (≈ 273 µM)
Candida albicans; strain 8, after 48 hours
  MIC: 75 µg/mL (≈ 273 µM)
Candida albicans; strain 9, after 48 hours
  MIC: 75 µg/mL (≈ 273 µM)
Candida albicans; strain 29, after 48 hours
  MIC: 75 µg/mL (≈ 273 µM)
Candida albicans; strain Atkisson, after 48 hours
  MIC: 75 µg/mL (≈ 273 µM)
Candida albicans; strain Bertrand, after 48 hours
  MIC: 75 µg/mL (≈ 273 µM)
Candida albicans; strain Bevan, after 48 hours
  MIC: 75 µg/mL (≈ 273 µM)
Candida albicans; strain Blunden, after 48 hours
  MIC: 75 µg/mL (≈ 273 µM)
Candida albicans; strain Bognay, after 48 hours
  MIC: 75 µg/mL (≈ 273 µM)
Candida albicans; strain Boyer, after 48 hours
  MIC: 75 µg/mL (≈ 273 µM)
Candida albicans; strain Burke, after 48 hours
  MIC: 75 µg/mL (≈ 273 µM)
Candida albicans; strain Burnside, after 48 hours
  MIC: 75 µg/mL (≈ 273 µM)
Candida albicans; strain Collins, after 48 hours
  MIC: 75 µg/mL (≈ 273 µM)
Candida albicans; strain Fix, after 48 hours
  MIC: 75 µg/mL (≈ 273 µM)
Candida albicans; strain Frazier, after 48 hours
  MIC: 75 µg/mL (≈ 273 µM)
Candida albicans; strain Fulcher, after 48 hours
  MIC: 75 µg/mL (≈ 273 µM)
Candida albicans; strain Gay, after 48 hours
  MIC: 75 µg/mL (≈ 273 µM)
Candida albicans; strain Hons, after 48 hours
  MIC: 75 µg/mL (≈ 273 µM)
Candida albicans; strain Johnson, after 48 hours
  MIC: 75 µg/mL (≈ 273 µM)
Candida albicans; strain Kenndy 2, after 48 hours
  MIC: 75 µg/mL (≈ 273 µM)
Candida albicans; strain Kennedy 1, after 48 hours
  MIC: 37.5 µg/mL (≈ 136 µM)
Candida albicans; strain Lehtman, after 48 hours
  MIC: 75 µg/mL (≈ 273 µM)
Candida albicans; strain Lusk, after 48 hours
  MIC: 75 µg/mL (≈ 273 µM)
Candida albicans; strain Merkel, after 48 hours
  MIC: 75 µg/mL (≈ 273 µM)
Candida albicans; strain Newcomb, after 48 hours
  MIC: 37.5 µg/mL (≈ 136 µM)
Candida albicans; strain Sherod, after 48 hours
  MIC: 75 µg/mL (≈ 273 µM)
Candida albicans; strain Shurelli, after 48 hours
  MIC: 75 µg/mL (≈ 273 µM)
Candida albicans; strain Sparks, after 48 hours
  MIC: 75 µg/mL (≈ 273 µM)
Candida albicans; strain Tyner, after 48 hours
  MIC: 75 µg/mL (≈ 273 µM)
T. mentagrophytes; concentration 1%
  Average No. of Days to become negative, Cultures: 6.8 days
  Average No. of Days to become negative, Lesion: 9.0 days
  Average Sum of lesion scores, Days 1-5: 11.8
  Average Sum of lesion scores, Days 1-10: 16.0
T. mentagrophytes; concentration 4%
  Average No. of Days to become negative, Cultures: 6.0 days
  Average No. of Days to become negative, Lesion: 8.8 days
  Average Sum of lesion scores, Days 1-5: 11.2
  Average Sum of lesion scores, Days 1-10: 14.8
Enterococcus; pH 7.4, strain 373, Mueller Hinton Agar pH 7.4
  MIC: 7.5 µg/mL (≈ 27.3 µM)
Enterococcus; pH 7.4, strain 0928/72, Mueller Hinton Agar pH 7.4
  MIC: 7.5 µg/mL (≈ 27.3 µM)
